Measurements reported in ChEMBL document CHEMBL1201862, “PubChem BioAssay data set” (2004).
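Cultured in 96-well plates, cells were exposed to test compound for 48 hours across five concentrations. At the GI50, growth is halved.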 Calls of active or inactive are those of the source. Cut-off read from the data, not from the text of the source: active = GI50 up to about 1.1 µM and inactive = higher.

Assays:
Experiment in all cases: growth of human tumour cells (NCI), 48 h
[1] = tested on: COLO 205
[2] = tested on: HCT-15
[3] = tested on: MDA-MB-435
[4] = tested on: 786-0
[5] = tested on: SK-MEL-5
[6] = tested on: SK-MEL-28
[7] = tested on: BT-549
[8] = tested on: PC-3
[9] = tested on: HCT-116
[10] = tested on: MDA-N
[11] = tested on: OVCAR-5
[12] = tested on: T47D
[13] = tested on: DLD-1
[14] = tested on: TK-10
[15] = tested on: UACC-257
[16] = tested on: EKVX
[17] = tested on: RXF 393
[18] = tested on: A549
[19] = tested on: OVCAR-3
[20] = tested on: CAKI-1

`COc1cc(C2C3=C(COC3=O)Oc3cc4c(cc32)OCO4)cc(OC)c1OC` (stereo not given) was tested, and the GI50 [1] was 0.0333 µM (active), the GI50 [2] was under 0.0158 µM and the GI50 [3] was 0.0295 µM (active). For the same molecule, the GI50 [4] was 0.0333 µM (active), the GI50 [5] was 0.0198 µM (active) and the GI50 [6] was 0.00771 µM (active). The GI50 [7] was 0.245 µM (active), the GI50 [8] was 0.0331 µM (active) and the GI50 [9] was < 0.0144 µM (active). For the same molecule, the GI50 [10] was 0.0219 µM (active), the GI50 [11] was 0.274 µM (active) and the GI50 [12] was > 10 µM (inactive). For the same molecule, the GI50 [13] was 0.022 µM (active), the GI50 [14] was > 10 µM (inactive) and the GI50 [15] was 0.0673 µM (active). The GI50 [16] was 0.015 µM (active), the GI50 [17] was 0.0106 µM (active) and the GI50 [18] was 0.0354 µM (active). The GI50 [19] was 0.025 µM (active) and the GI50 [20] was 0.01 µM (active).
In the case of `COC1=C(OC)C(=O)c2cc(C)c(=O)c(C)cc2C1=O`, the GI50 [1] is reported as 19.1 µM (inactive), the GI50 [2] is reported as 21.3 µM and the GI50 [3] is reported as 1.8 µM (inactive). The GI50 [4] was 11.9 µM (inactive), the GI50 [5] was 15.8 µM (inactive) and the GI50 [6] was 16.5 µM (inactive). The GI50 [7] was 15.2 µM (inactive), the GI50 [8] was 20.3 µM (inactive) and the GI50 [9] was 15.3 µM (inactive). The GI50 [10] was 2.53 µM (inactive), the GI50 [11] was 31.3 µM (inactive) and the GI50 [12] was 28.6 µM (inactive). The GI50 [13] was 22.3 µM (inactive), the GI50 [14] was 19.1 µM (inactive) and the GI50 [15] was 11.2 µM (inactive). The GI50 [16] was 17.3 µM (inactive), the GI50 [17] was 15.3 µM (inactive) and the GI50 [18] was 20.2 µM (inactive). For the same molecule, the GI50 [19] was 10.4 µM (inactive) and the GI50 [20] was 17.3 µM (inactive).
